Test results as given in patent US8901118B2, “Compounds and methods for kinase modulation, and indications therefor” (Plexxikon Inc., priority 2010, dated 2014).

Molecular target: T1, BCR-NTRK1 BaF3 cells (Homo sapiens, UniProt P04629)
T1 construct: fused on or other part: P11274 (Breakpoint cluster region protein)
Assay: BaF3 BCR-NTRK1 cell proliferation assay (ATPlite)
Format: cell-based
Details: read-out: Inhibition of Cell Proliferation IC50, BCR/BaF3 TrkA
Procedure, shortened: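 Proliferation was run for 3 days at 37 °C against 8-point 1:3 titrations with 10 μM as the top final concentration. Seeding was 10,000 cells/well for BaF3 BCR-fusion lines, grown without IL-3, and 25,000 cells/well for MV-4-11. IC50 was derived from ATPlite luminescence read as cell number.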

T1 sequence (P04629 510-781): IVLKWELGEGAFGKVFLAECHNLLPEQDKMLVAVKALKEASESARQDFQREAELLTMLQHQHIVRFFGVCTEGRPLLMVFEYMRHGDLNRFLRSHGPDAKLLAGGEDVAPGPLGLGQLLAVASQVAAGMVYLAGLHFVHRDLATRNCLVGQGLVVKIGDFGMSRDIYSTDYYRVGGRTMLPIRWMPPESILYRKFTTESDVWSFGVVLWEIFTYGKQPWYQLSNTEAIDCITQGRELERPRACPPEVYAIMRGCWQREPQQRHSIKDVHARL

Row | IC50 [µM] | SMILES
1 | < 0.1 | Cc1cnc2[nH]cc(C(=O)c3ccc(Nc4ccc(C5CC5)nc4)nc3F)c2c1 [Compound P-3051, [6-(6-Cyclopropyl-pyridin-3-ylamino)-2-fluoro-pyridin-3-yl]-(5-methyl-1H-pyrrolo[2,3-b]pyridin-3-yl)-methanone]
2 | < 0.1 | O=C(c1ccc(Nc2ccc(C3CC3)nc2)nc1F)c1c[nH]c2ncccc12 [Compound P-3052, [6-(6-Cyclopropyl-pyridin-3-ylamino)-2-fluoro-pyridin-3-yl]-(1H-pyrrolo[2,3-b]pyridin-3-yl)-methanone]
3 | < 0.1 | Fc1nc(Nc2ccc(C3CC3)nc2)ccc1Cc1c[nH]c2ncccc12 [Compound P-3053, (6-Cyclopropyl-pyridin-3-yl)-[6-fluoro-5-(1H-pyrrolo[2,3-b]pyridin-3-ylmethyl)-pyridin-2-yl]-amine]
4 | < 0.1 | COc1ccc(Nc2ccc(Cc3c[nH]c4ncnc(OC)c34)c(F)n2)cn1 [Compound P-4001, [6-Fluoro-5-(4-methoxy-7H-pyrrolo[2,3-d]pyrimidin-5-ylmethyl)-pyridin-2-yl]-(6-methoxy-pyridin-3-yl)-amine]
5 | < 1 | COc1ccc(Nc2ccc(Cc3c[nH]c4ncnc(C)c34)c(F)n2)cn1 [Compound P-4002, [6-Fluoro-5-(4-methyl-7H-pyrrolo[2,3-d]pyrimidin-5-ylmethyl)-pyridin-2-yl]-(6-methoxy-pyridin-3-yl)-amine]
6 | < 1 | COc1ncnc2[nH]cc(Cc3ccc(Nc4ccc(Cl)nc4)nc3F)c12 [Compound P-4003, (6-Chloro-pyridin-3-yl)-[6-fluoro-5-(4-methoxy-7H-pyrrolo[2,3-d]pyrimidin-5-ylmethyl)-pyridin-2-yl]-amine]
7 | < 0.01 | COc1ncnc2[nH]cc(Cc3ccc(Nc4ccc(C5CC5)nc4)nc3F)c12 [Compound P-4004, (6-Cyclopropyl-pyridin-3-yl)-[6-fluoro-5-(4-methoxy-7H-pyrrolo[2,3-d]pyrimidin-5-ylmethyl)-pyridin-2-yl]-amine]
8 | < 0.1 | CCOc1ccc(Nc2ccc(Cc3c[nH]c4ncnc(OC)c34)c(F)n2)cn1 [Compound P-4005, (6-Ethoxy-pyridin-3-yl)-[6-fluoro-5-(4-methoxy-7H-pyrrolo[2,3-d]pyrimidin-5-ylmethyl)-pyridin-2-yl]-amine]
9 | < 0.1 | CCOc1ccc(Nc2ccc(Cc3c[nH]c4ncnc(C)c34)c(F)n2)cn1 [Compound P-4006, (6-Ethoxy-pyridin-3-yl)-[6-fluoro-5-(4-methyl-7H-pyrrolo[2,3-d]pyrimidin-5-ylmethyl)-pyridin-2-yl]-amine]
10 | < 0.01 | CCc1ccc(Nc2ccc(Cc3c[nH]c4ncnc(OC)c34)c(F)n2)cn1 [Compound P-4007, (6-Ethyl-pyridin-3-yl)-[6-fluoro-5-(4-methoxy-7H-pyrrolo[2,3-d]pyrimidin-5-ylmethyl)-pyridin-2-yl]-amine]
11 | < 0.1 | CCOc1ccc(Nc2ccc(Cc3c[nH]c4ncnc(OCCOC)c34)c(F)n2)cn1 [Compound P-4008, (6-Ethoxy-pyridin-3-yl)-{6-fluoro-5-[4-(2-methoxy-ethoxy)-7H-pyrrolo[2,3-d]pyrimidin-5-ylmethyl]-pyridin-2-yl}-amine]
12 | < 0.1 | CCc1ccc(Nc2ccc(Cc3c[nH]c4ncnc(C)c34)c(F)n2)cn1 [Compound P-4009, (6-Ethyl-pyridin-3-yl)-[6-fluoro-5-(4-methyl-7H-pyrrolo[2,3-d]pyrimidin-5-ylmethyl)-pyridin-2-yl]-amine]
13 | < 1 | COc1ncnc2[nH]cc(Cc3ccc(Nc4ccc(C)nc4)nc3F)c12 [Compound P-4010, [6-Fluoro-5-(4-methoxy-7H-pyrrolo[2,3-d]pyrimidin-5-ylmethyl)-pyridin-2-yl]-(6-methyl-pyridin-3-yl)-amine]
14 | < 1 | CCn1cc(Nc2ccc(Cc3c[nH]c4ncnc(OC)c34)c(F)n2)cn1 [Compound P-4011, (1-Ethyl-1H-pyrazol-4-yl)-[6-fluoro-5-(4-methoxy-7H-pyrrolo[2,3-d]pyrimidin-5-ylmethyl)-pyridin-2-yl]-amine]
15 | < 1 | CCOc1ncnc2[nH]cc(Cc3ccc(Nc4cnn(CC)c4)nc3F)c12 [Compound P-4012, [5-(4-Ethoxy-7H-pyrrolo[2,3-d]pyrimidin-5-ylmethyl)-6-fluoro-pyridin-2-yl]-(1-ethyl-1H-pyrazol-4-yl)-amine]
16 | < 1 | CCn1cc(Nc2ccc(Cc3c[nH]c4ncnc(C)c34)c(F)n2)cn1 [Compound P-4013, (1-Ethyl-1H-pyrazol-4-yl)-[6-fluoro-5-(4-methyl-7H-pyrrolo[2,3-d]pyrimidin-5-ylmethyl)-pyridin-2-yl]-amine]
17 | < 1 | CCn1cc(Nc2ccc(Cc3c[nH]c4ncnc(OCCOC)c34)c(F)n2)cn1 [Compound P-4014, (1-Ethyl-1H-pyrazol-4-yl)-{6-fluoro-5-[4-(2-methoxy-ethoxy)-7H-pyrrolo[2,3-d]pyrimidin-5-ylmethyl]-pyridin-2-yl}-amine]
18 | < 1 | COCCOc1ncnc2[nH]cc(Cc3ccc(Nc4ccc(C)nc4)nc3F)c12 [Compound P-4015, {6-Fluoro-5-[4-(2-methoxy-ethoxy)-7H-pyrrolo[2,3-d]pyrimidin-5-ylmethyl]-pyridin-2-yl}-(6-methyl-pyridin-3-yl)-amine]
19 | < 0.1 | CCc1ccc(Nc2ccc(Cc3c[nH]c4ncnc(OCCOC)c34)c(F)n2)cn1 [Compound P-4016, (6-Ethyl-pyridin-3-yl)-{6-fluoro-5-[4-(2-methoxy-ethoxy)-7H-pyrrolo[2,3-d]pyrimidin-5-ylmethyl]-pyridin-2-yl}-amine]
20 | < 1 | CCOc1ncnc2[nH]cc(Cc3ccc(Nc4ccc(C)nc4)nc3F)c12 [Compound P-4017, [5-(4-Ethoxy-7H-pyrrolo[2,3-d]pyrimidin-5-ylmethyl)-6-fluoro-pyridin-2-yl]-(6-methyl-pyridin-3-yl)-amine]
21 | < 0.1 | CCOc1ncnc2[nH]cc(Cc3ccc(Nc4ccc(OC)nc4)nc3F)c12 [Compound P-4018, [5-(4-Ethoxy-7H-pyrrolo[2,3-d]pyrimidin-5-ylmethyl)-6-fluoro-pyridin-2-yl]-(6-methoxy-pyridin-3-yl)-amine]
22 | < 1 | COCCOc1ncnc2[nH]cc(Cc3ccc(Nc4ccc(OC)nc4)nc3F)c12 [Compound P-4019, {6-Fluoro-5-[4-(2-methoxy-ethoxy)-7H-pyrrolo[2,3-d]pyrimidin-5-ylmethyl]-pyridin-2-yl}-(6-methoxy-pyridin-3-yl)-amine]
23 | < 1 | CCOc1ncnc2[nH]cc(Cc3ccc(Nc4ccc(Br)nc4)nc3F)c12 [Compound P-4020, (6-Bromo-pyridin-3-yl)-[5-(4-ethoxy-7H-pyrrolo[2,3-d]pyrimidin-5-ylmethyl)-6-fluoro-pyridin-2-yl]-amine]
24 | > 1 | CCOc1ncnc2[nH]cc(Cc3ccc(Nc4cccnc4)nc3F)c12 [Compound P-4021, [5-(4-Ethoxy-7H-pyrrolo[2,3-d]pyrimidin-5-ylmethyl)-6-fluoro-pyridin-2-yl]-pyridin-3-yl-amine]
25 | < 0.01 | COc1ccc(Nc2ccc(C(=O)c3c[nH]c4ncnc(C5CC5)c34)c(F)n2)cn1 [Compound P-4022, (4-cyclopropyl-7H-pyrrolo[2,3-d]pyrimidin-5-yl)-[2-fluoro-6-(6-methoxy-pyridin-3-ylamino)-pyridin-3-yl]-methanone]
